Data reported in EPA's ToxRefDB 2.

How the values were obtained:
[1] = tested on: rat; settings: Carcinogenicity, fischer, Oral, Gavage/Intubation, dose end: 103 week, group: systemic
[2] = tested on: mouse; settings: Subchronic oral toxicity in rodents, b6c3f1, Gavage/Intubation, dose end: 13 week, group: systemic, systemic / pathology microscopic / stomach / cytoplasmic alteration + systemic / pathology microscopic / stomach / hyperkeratosis + systemic…
[3] = tested on: mouse; settings: Carcinogenicity; b6c3f1; Oral; Gavage/Intubation; dose end: 104 week; group: systemic; systemic / in life observation / body weight / body weight + systemic / pathology microscopic / stomach / cyst + systemic / pathology …
[4] = tested on: rat; settings: Subchronic oral toxicity in rodents, fischer, Gavage/Intubation, dose end: 13 week, group: systemic
[5] = tested on: mouse; settings: Prenatal developmental toxicity study; other; Oral; Gavage/Intubation; dose end: 18 GD; group: maternal; reproductive / reproductive performance / aborted / aborted + reproductive / reproductive performance / estrous cycle / corpora lutea
[6] = tested on: rat; settings: Carcinogenicity; fischer; Oral; Feed; dose end: 24 month; group: systemic; systemic / clinical chemistry / [other] / [other] + systemic / in life observation / body weight / body weight + systemic / in life …
[7] = tested on: rat; settings: Sub-acute repeat dose toxicity, fischer, Oral, Feed, dose end: 28 day, group: systemic
[8] = tested on: rat; settings: Subchronic oral toxicity in rodents, fischer, Feed, dose end: 13 week, group: systemic
[9] = tested on: dog; settings: Subchronic oral toxicity in nonrodent, beagle, Feed, dose end: 6 month, group: systemic, systemic / clinical chemistry / albumin-globulin ratio / albumin-globulin ratio + systemic / organ weight / liver / absolute + systemic / …
[10] = tested on: rat; settings: Multigenerational reproductive toxicity study, sprague dawley, Oral, Gavage/Intubation, dose end: 1 generation
[11] = tested on: rat; settings: Chronic toxicity, Oral, Feed, dose end: 26 month, group: systemic
[12] = tested on: dog; settings: Subchronic oral toxicity in nonrodent, beagle, Capsule, dose end: 6 month
[13] = tested on: dog; settings: Chronic toxicity; beagle; Oral; Feed; dose end: 12 month; group: cholinesterase; cholinesterase / cholinesterase / cholinesterase / erythrocyte cholinesterase (che) + cholinesterase / cholinesterase / cholinesterase / …
[14] = tested on: rat; settings: Combined chronic toxicity/carcinogenicity, sprague dawley, Oral, Feed, dose end: 24 month, group: systemic
[15] = tested on: rat; settings: Subchronic oral toxicity in rodents, Diet, dose end: 90 day
[16] = tested on: rat; settings: Combined chronic toxicity/carcinogenicity, wistar, Oral, Feed, dose end: 26 month
[17] = tested on: rat; settings: Developmental neurotoxicity study; long evans; Injection; Subcutaneous; dose end: 30 PND; group: cannot be grouped; cholinesterase / cholinesterase / cholinesterase / cholinesterase (che) + systemic / in life observation / body weight / offspring (pup) …
[18] = systemic / in life observation / clinical signs / defecation (diarrhea) + systemic / in life observation / clinical signs / urination
[19] = systemic / in life observation / clinical signs / defecation (diarrhea) + systemic / in life observation / clinical signs / urination + …
[20] = systemic / in life observation / body weight / body weight + systemic / in life observation / clinical signs / defecation (diarrhea) + …
[21] = systemic / in life observation / food consumption / food consumption + systemic / pathology microscopic / stomach / hyperkeratosis + …
[22] = systemic / pathology microscopic / stomach / papilloma + systemic / in life observation / body weight / body weight + systemic / in life …
[23] = systemic / in life observation / body weight / body weight gain + systemic / pathology gross / stomach / thickened + systemic / pathology …
[24] = group: offspring, developmental / developmental landmark / vaginal opening / vaginal opening + systemic / clinical chemistry / cholesterol / cholesterol + …
[25] = group: offspring, systemic / organ weight / spleen / absolute
[26] = group: parental, systemic / organ weight / adrenal gland / absolute + systemic / organ weight / liver / absolute + systemic / organ weight / liver / relative…
[27] = group: parental, systemic / pathology gross / sperm measure / sperm morphology
[28] = group: reproductive, reproductive / reproductive performance / mating / mating + reproductive / reproductive performance / estrous cycle / length
[29] = systemic / pathology microscopic / eye / [other]
[30] = systemic / pathology microscopic / eye / [other] + systemic / pathology microscopic / eye / atrophy + systemic / pathology microscopic / eye…
[31] = group: cholinesterase, cholinesterase / cholinesterase / cholinesterase / plasma cholinesterase (che)
[32] = group: systemic, systemic / clinical chemistry / [other] / [other]
[33] = systemic / pathology microscopic / nerve / [other] + systemic / pathology microscopic / nerve / proliferation
[34] = group: cholinesterase, cholinesterase / cholinesterase / cholinesterase / erythrocyte cholinesterase (che) + cholinesterase / cholinesterase / cholinesterase / …
[35] = group: systemic, systemic / in life observation / body weight / body weight gain + systemic / in life observation / mortality / mortality
[36] = group: systemic, systemic / in life observation / body weight / body weight + systemic / in life observation / clinical signs / [other] + systemic / in life …

**Q.** `CC1(C)S[C@@H]2[C@H](NC(=O)COc3ccccc3)C(=O)N2[C@H]1C(=O)[O-].[K+]` [Penicillin VK] was tested. Which LEL [1, 18] did it give?
**A.** 500 mg/kg/day

**Q.** And the NEL [1, 18]?
**A.** < 500 mg/kg/day

**Q.** What about the LOAEL [1, 19] of the same molecule?
**A.** > 1000 mg/kg/day

**Q.** What about the NOAEL [1, 19] of the same molecule?
**A.** ≥ 1000 mg/kg/day

**Q.** What about the LEL [2] of the same molecule?
**A.** 100 mg/kg/day

**Q.** What about the LOAEL [2] of the same molecule?
**A.** > 3000 mg/kg/day

**Q.** And the NEL [2]?
**A.** < 100 mg/kg/day

**Q.** And the NOAEL [2]?
**A.** ≥ 3000 mg/kg/day

**Q.** What about the LEL [3] of the same molecule?
**A.** 500 mg/kg/day

**Q.** What about the LOAEL [3] of the same molecule?
**A.** > 1000 mg/kg/day

**Q.** And the NEL [3]?
**A.** < 500 mg/kg/day

**Q.** And the NOAEL [3]?
**A.** ≥ 1000 mg/kg/day

**Q.** What about the LOAEL [4, 20] of the same molecule?
**A.** > 3000 mg/kg/day

**Q.** What about the NEL [4, 20] of the same molecule?
**A.** 370 mg/kg/day

**Q.** What about the NOAEL [4, 20] of the same molecule?
**A.** ≥ 3000 mg/kg/day

**Q.** What about the LEL ([4]; systemic / in life observation / clinical signs / defecation (diarrhea)) of the same molecule?
**A.** 750 mg/kg/day

**Q.** Which results are given for `COc1ccc(O)c(C(C)(C)C)c1` [Butylated hydroxyanisole]?
**A.** LEL [5]: 500 mg/kg/day; LOAEL [5]: > 500 mg/kg/day; NEL [5]: < 500 mg/kg/day; NOAEL [5]: ≥ 500 mg/kg/day; LEL [6]: 1000 mg/kg/day; LOAEL [6]: > 1000 mg/kg/day; NEL [6]: < 1000 mg/kg/day; NOAEL [6]: ≥ 1000 mg/kg/day; LEL [7, 21]: 350 mg/kg/day; NEL [7, 21]: < 350 mg/kg/day; LOAEL [7, 22]: > 1400 mg/kg/day; NOAEL [7, 22]: ≥ 1400 mg/kg/day; LEL ([8]; systemic / clinical chemistry / [other] / [other]): 250 mg/kg/day; NEL ([8]; systemic / clinical chemistry / [other] / [other] + systemic / in life observation / body weight / body weight gain + systemic / in life …): 125 mg/kg/day; LOAEL [8, 23]: > 1000 mg/kg/day; NOAEL [8, 23]: ≥ 1000 mg/kg/day; LEL [9]: 54 mg/kg/day; LOAEL [9]: > 219 mg/kg/day; NEL [9]: < 54 mg/kg/day; NOAEL [9]: ≥ 219 mg/kg/day; LOAEL [10, 24]: > 500 mg/kg/day; NOAEL [10, 24]: ≥ 500 mg/kg/day; LEL [10, 25]: 10 mg/kg/day; NEL [10, 25]: < 10 mg/kg/day; LOAEL [10, 26]: > 500 mg/kg/day; NOAEL [10, 26]: ≥ 500 mg/kg/day; LEL [10, 27]: 10 mg/kg/day; NEL [10, 27]: < 10 mg/kg/day; NEL ([10]; group: reproductive, reproductive / reproductive performance / mating / mating): 100 mg/kg/day; LEL [10, 28]: 500 mg/kg/day; LOAEL [10, 28]: > 500 mg/kg/day; NOAEL [10, 28]: ≥ 500 mg/kg/day

**Q.** `CCOP(=S)(OCC)Oc1ccc([N+](=O)[O-])cc1` [Parathion] was tested. Which NEL [11, 29] did it give?
**A.** 0.4 mg/kg/day

**Q.** What about the NOAEL [11, 29] of the same molecule?
**A.** 0.4 mg/kg/day

**Q.** What about the LEL [11, 30] of the same molecule?
**A.** 1.6 mg/kg/day

**Q.** And the LOAEL [11, 30]?
**A.** 1.6 mg/kg/day

**Q.** What about the LEL [12, 31] of the same molecule?
**A.** 0.0024 mg/kg/day

**Q.** And the LOAEL [12, 31]?
**A.** 0.0079 mg/kg/day

**Q.** What about the NEL [12, 31] of the same molecule?
**A.** < 0.0024 mg/kg/day

**Q.** And the NOAEL ([12]; group: cholinesterase, cholinesterase / cholinesterase / cholinesterase / plasma cholinesterase (che) + cholinesterase / cholinesterase / cholinesterase / brain (…)?
**A.** 0.0024 mg/kg/day

**Q.** And the LEL [12, 32]?
**A.** 0.794 mg/kg/day

**Q.** What about the LOAEL [12, 32] of the same molecule?
**A.** > 0.794 mg/kg/day

**Q.** What about the NEL [12, 32] of the same molecule?
**A.** 0.0079 mg/kg/day

**Q.** And the NOAEL [12, 32]?
**A.** ≥ 0.794 mg/kg/day

**Q.** What about the LEL [13] of the same molecule?
**A.** 0.01 mg/kg/day

**Q.** And the LOAEL [13]?
**A.** 0.01 mg/kg/day

**Q.** And the NEL [13]?
**A.** < 0.01 mg/kg/day

**Q.** And the NOAEL [13]?
**A.** < 0.01 mg/kg/day

**Q.** And the NEL ([14]; systemic / in life observation / clinical signs / abnormal gait)?
**A.** 0.25 mg/kg/day

**Q.** And the LOAEL [14, 33]?
**A.** 2.5 mg/kg/day

**Q.** And the NOAEL [14, 33]?
**A.** 0.25 mg/kg/day

**Q.** What about the LEL ([14]; systemic / pathology microscopic / nerve / [other] + systemic / pathology microscopic / nerve / proliferation + systemic / in life …) of the same molecule?
**A.** 2.5 mg/kg/day

**Q.** What about the LEL [15, 34] of the same molecule?
**A.** 0.4 mg/kg/day

**Q.** What about the LOAEL [15, 34] of the same molecule?
**A.** 4 mg/kg/day

**Q.** What about the NEL [15, 34] of the same molecule?
**A.** 0.04 mg/kg/day

**Q.** What about the NOAEL [15, 34] of the same molecule?
**A.** 0.4 mg/kg/day

**Q.** And the LEL [15, 35]?
**A.** 4 mg/kg/day

**Q.** What about the LOAEL [15, 35] of the same molecule?
**A.** 4 mg/kg/day

**Q.** And the NEL [15, 35]?
**A.** 0.4 mg/kg/day

**Q.** What about the NOAEL [15, 35] of the same molecule?
**A.** 0.4 mg/kg/day

**Q.** And the LEL [16, 34]?
**A.** 0.42 mg/kg/day

**Q.** And the LOAEL [16, 34]?
**A.** 0.42 mg/kg/day

**Q.** What about the NEL [16, 34] of the same molecule?
**A.** 0.1 mg/kg/day

**Q.** And the NOAEL [16, 34]?
**A.** 0.1 mg/kg/day

**Q.** And the LOAEL [16, 36]?
**A.** > 1.75 mg/kg/day

**Q.** What about the NOAEL [16, 36] of the same molecule?
**A.** ≥ 1.75 mg/kg/day

**Q.** What about the LEL ([16]; group: systemic, systemic / pathology microscopic / eye / [other]) of the same molecule?
**A.** 0.53 mg/kg/day

**Q.** What about the NEL ([16]; group: systemic, systemic / pathology microscopic / eye / [other] + systemic / clinical chemistry / aspartate aminotransferase (ast/sgot) / aspartate …) of the same molecule?
**A.** 0.14 mg/kg/day

**Q.** And the LEL [17]?
**A.** 1.3 mg/kg/day

**Q.** And the LOAEL [17]?
**A.** > 1.9 mg/kg/day

**Q.** And the NEL [17]?
**A.** < 1.3 mg/kg/day

**Q.** What about the NOAEL [17] of the same molecule?
**A.** ≥ 1.9 mg/kg/day
